Measurements published in patent US20070117770A1, “Human ribosomal DNA (rDNA) and ribosomal RNA (rRNA) nucleic acids and uses thereof” (Cylene Pharmaceuticals, Inc., priority 2005, published 2007).

Columns and labels:
Assay in all cases: Protein kinase inhibition assay
Type in all cases: biochemical
BRK(h) = BRK(h) (Homo sapiens, UniProt Q13882); details: read-out: percent residual activity of BRK(h)
Experimental: (§1) Certain compounds were tested for activity in protein kinase inhibition assays. All substrates were dissolved and diluted to working stocks in de-ionized water, apart from histone H1 (10× working stock in 20 mM MOPS pH 7.0), PDKtide (10× working stock in 50 mM Tris pH 7.0) ATF2 (which is typically stored at a 20× working stock in 50 mM Tris pH 7.5, 150 mM NaCl, 0.1 mM EGTA, 0.03% Brij-35, 50% glycerol, 1 mM benzamidine, 0.2 mM PMSF and 0.1% R-mercaptoethanol), KKLNRTLSFAEPG (SEQ ID NO:203) and RRRLSFAEPG (SEQ ID NO:204) (50 mM HEPES pH 7.4) and GGEEEEYFELVKKKK (SEQ ID NO:205) (20 mM MOPS pH 7.0). All kinases were pre-diluted to a 10× working concentration prior to addition into the assay. The composition of the dilution buffer for each kinase is detailed below.
(§2) In a final reaction volume of 25 μl, BRK (h) (5-10 mU) is incubated with 8 mM MOPS pH 7.0, 0.2 mM EDTA, 5 mM MnCl2, 0.1 mg/ml poly (Glu, Tyr) 4:1, 10 mM MgAcetate and [gamma-33P-ATP] (specific activity approx. 500 cpm/pmol, concentration as required). The reaction is initiated by the addition of the MgATP mix. After incubation for 40 minutes at room temperature, the reaction is stopped by the addition of 5 μl of a 3% phosphoric acid solution. 10 μl of the reaction is then spotted onto a Filtermat A and washed three times for 5 minutes in 75 mM phosphoric acid and once in methanol prior to drying and scintillation counting.

Fyn(h) = Fyn(h) (Homo sapiens, UniProt P06241); details: read-out: percent residual activity of Fyn(h)
Chain of Fyn(h) (P06241 whole entry): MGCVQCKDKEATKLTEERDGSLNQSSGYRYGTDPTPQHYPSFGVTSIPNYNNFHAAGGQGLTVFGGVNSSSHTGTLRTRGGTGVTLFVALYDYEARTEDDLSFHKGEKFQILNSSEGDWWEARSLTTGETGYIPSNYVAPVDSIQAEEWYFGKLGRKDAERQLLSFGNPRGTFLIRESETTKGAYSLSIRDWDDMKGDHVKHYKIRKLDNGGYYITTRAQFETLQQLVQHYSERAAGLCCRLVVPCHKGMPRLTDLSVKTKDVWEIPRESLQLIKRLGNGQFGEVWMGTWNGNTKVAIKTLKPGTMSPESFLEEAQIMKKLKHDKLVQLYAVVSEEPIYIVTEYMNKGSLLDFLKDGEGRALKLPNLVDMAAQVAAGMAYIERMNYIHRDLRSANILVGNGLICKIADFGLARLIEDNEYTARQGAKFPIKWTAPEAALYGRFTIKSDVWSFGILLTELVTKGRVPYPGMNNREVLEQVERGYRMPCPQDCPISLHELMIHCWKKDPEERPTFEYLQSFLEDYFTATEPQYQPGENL
Experimental: as §1
In a final reaction volume of 25 μl, Fyn (h) (5-10 mU) is incubated with 50 mM Tris pH 7.5, 0.1 mM EGTA, 0.1 mM Na3VO4, 250 μM KVEKIGEGTYGVVYK (SEQ ID NO:220) (Cdc2 peptide), 10 mM MgAcetate and [gamma-33P-ATP] (specific activity approx. 500 cpm/pmol, concentration as required). The reaction is initiated by the addition of the MgATP mix. After incubation for 40 minutes at room temperature, the reaction is stopped by the addition of 5 μl of a 3% phosphoric acid solution. […]

GSK3α(h) = GSK3α(h) (Homo sapiens, UniProt P49840); details: read-out: percent residual activity of GSK3α(h)
Chain of GSK3α(h) (P49840 whole entry): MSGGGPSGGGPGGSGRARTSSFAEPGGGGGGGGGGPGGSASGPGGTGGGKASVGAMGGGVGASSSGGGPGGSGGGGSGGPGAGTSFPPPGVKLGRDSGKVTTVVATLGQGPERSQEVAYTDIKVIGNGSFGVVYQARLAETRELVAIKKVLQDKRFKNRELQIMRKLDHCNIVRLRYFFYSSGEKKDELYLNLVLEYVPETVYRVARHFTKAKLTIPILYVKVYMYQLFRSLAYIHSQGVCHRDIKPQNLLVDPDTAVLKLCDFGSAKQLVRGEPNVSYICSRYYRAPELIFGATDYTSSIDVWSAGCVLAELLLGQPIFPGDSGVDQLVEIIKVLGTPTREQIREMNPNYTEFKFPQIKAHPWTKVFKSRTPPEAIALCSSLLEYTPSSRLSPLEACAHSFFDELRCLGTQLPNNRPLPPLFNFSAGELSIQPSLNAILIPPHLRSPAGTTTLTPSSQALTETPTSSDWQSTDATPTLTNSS
Experimental: as §1
In a final reaction volume of 25 μl, GSK3α (h) (5-10 mU) is incubated with 8 mM MOPS pH 7.0, 0.2 mM EDTA, 20 μM […](p)EDEEE (SEQ ID NO:216) (phospho GS2 peptide), 10 mM MgAcetate and [gamma-33P-ATP] (specific activity approx. 500 cpm/pmol, concentration as required). The reaction is initiated by the addition of the MgATP mix. After incubation for 40 minutes at room temperature, the reaction is stopped by the addition of 5 μl of a 3% phosphoric acid solution. […]

JNK3(h) = JNK3(h) (Homo sapiens, UniProt P53779); details: read-out: percent residual activity of JNK3(h)
Chain of JNK3(h) (P53779 whole entry): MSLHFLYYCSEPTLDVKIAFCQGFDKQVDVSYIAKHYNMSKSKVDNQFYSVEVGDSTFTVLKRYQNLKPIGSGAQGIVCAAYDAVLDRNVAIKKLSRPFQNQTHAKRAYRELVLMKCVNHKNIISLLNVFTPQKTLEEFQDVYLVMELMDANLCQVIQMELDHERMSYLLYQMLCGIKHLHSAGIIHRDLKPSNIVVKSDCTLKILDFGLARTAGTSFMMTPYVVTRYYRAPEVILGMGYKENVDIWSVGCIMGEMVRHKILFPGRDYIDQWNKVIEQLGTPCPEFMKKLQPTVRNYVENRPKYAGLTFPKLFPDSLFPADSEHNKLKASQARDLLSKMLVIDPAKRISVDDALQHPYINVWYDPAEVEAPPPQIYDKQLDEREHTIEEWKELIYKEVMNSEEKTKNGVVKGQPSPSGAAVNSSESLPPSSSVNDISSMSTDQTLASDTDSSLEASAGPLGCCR
Experimental: as §1
as §2, with “JNK3” for “BRK”, “50” for “8”, “Tris” for “MOPS”, “7.5, 0.1” for “7.0, 0.2”, “EGTA, 0.1% R-mercaptoethanol, 250 μM peptide,” for “EDTA, 5 mM MnCl2, 0.1 mg/ml poly (Glu, Tyr) 4:1,”, “P30 filtermat” for “Filtermat A”

Met(h) = Met(h) (Homo sapiens, UniProt P08581); details: read-out: percent residual activity of Met(h)
Chain of Met(h) (P08581 25-1390): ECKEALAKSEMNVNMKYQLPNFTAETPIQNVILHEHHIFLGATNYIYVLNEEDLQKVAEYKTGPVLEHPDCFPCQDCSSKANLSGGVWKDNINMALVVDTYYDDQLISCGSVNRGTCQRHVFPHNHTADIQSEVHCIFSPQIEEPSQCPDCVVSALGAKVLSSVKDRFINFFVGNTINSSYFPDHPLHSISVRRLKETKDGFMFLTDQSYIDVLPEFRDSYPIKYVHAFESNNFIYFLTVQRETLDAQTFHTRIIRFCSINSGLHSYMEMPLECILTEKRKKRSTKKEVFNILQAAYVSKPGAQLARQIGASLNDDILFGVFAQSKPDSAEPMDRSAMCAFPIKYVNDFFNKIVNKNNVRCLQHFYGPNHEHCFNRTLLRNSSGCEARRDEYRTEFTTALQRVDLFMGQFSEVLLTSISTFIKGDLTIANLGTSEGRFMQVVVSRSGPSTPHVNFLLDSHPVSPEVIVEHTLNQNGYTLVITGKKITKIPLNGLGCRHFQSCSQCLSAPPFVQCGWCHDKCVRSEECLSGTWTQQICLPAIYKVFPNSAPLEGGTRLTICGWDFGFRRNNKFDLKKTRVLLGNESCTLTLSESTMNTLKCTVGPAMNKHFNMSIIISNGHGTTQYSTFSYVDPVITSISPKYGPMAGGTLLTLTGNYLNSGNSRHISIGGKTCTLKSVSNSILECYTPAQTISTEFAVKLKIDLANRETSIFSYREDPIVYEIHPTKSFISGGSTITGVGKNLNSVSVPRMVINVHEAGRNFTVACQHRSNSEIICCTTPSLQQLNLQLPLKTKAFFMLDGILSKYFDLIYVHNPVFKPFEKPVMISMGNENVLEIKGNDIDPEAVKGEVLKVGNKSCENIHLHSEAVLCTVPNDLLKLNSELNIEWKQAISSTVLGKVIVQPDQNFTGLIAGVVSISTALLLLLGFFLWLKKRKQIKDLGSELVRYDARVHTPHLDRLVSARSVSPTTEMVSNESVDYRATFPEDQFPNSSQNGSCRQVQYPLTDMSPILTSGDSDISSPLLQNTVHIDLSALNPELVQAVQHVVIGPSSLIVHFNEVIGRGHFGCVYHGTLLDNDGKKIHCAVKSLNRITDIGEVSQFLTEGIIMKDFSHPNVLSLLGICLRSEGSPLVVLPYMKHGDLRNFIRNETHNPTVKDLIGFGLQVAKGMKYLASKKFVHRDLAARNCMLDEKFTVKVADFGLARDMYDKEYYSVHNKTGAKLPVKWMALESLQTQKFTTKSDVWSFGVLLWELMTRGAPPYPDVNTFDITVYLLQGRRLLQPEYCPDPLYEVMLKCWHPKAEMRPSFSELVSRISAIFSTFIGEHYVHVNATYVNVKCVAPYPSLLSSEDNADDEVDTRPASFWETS
Experimental: as §1
In a final reaction volume of 25 μl, Met (h) (5-10 mU) is incubated with 8 mM MOPS pH 7.0, 0.2 mM EDTA, 250 μM KKKSPGEYVNIEFG (SEQ ID NO:207), 10 mM MgAcetate and [y-33P-ATP] (specific activity approx. 500 cpm/pmol, concentration as required). The reaction is initiated by the addition of the MgATP mix. After incubation for 40 minutes at room temperature, the reaction is stopped by the addition of 5 μl of a 3% phosphoric acid solution. 10 μl of the reaction is then spotted onto a P30 filtermat and washed three times for 5 minutes in 75 mM phosphoric acid and once in methanol prior to a drying and scintillation counting.

ROCK-I(h) = ROCK-I(h) (Homo sapiens, UniProt Q13464); details: read-out: percent residual activity of ROCK-I(h)
Chain of ROCK-I(h) (Q13464 whole entry): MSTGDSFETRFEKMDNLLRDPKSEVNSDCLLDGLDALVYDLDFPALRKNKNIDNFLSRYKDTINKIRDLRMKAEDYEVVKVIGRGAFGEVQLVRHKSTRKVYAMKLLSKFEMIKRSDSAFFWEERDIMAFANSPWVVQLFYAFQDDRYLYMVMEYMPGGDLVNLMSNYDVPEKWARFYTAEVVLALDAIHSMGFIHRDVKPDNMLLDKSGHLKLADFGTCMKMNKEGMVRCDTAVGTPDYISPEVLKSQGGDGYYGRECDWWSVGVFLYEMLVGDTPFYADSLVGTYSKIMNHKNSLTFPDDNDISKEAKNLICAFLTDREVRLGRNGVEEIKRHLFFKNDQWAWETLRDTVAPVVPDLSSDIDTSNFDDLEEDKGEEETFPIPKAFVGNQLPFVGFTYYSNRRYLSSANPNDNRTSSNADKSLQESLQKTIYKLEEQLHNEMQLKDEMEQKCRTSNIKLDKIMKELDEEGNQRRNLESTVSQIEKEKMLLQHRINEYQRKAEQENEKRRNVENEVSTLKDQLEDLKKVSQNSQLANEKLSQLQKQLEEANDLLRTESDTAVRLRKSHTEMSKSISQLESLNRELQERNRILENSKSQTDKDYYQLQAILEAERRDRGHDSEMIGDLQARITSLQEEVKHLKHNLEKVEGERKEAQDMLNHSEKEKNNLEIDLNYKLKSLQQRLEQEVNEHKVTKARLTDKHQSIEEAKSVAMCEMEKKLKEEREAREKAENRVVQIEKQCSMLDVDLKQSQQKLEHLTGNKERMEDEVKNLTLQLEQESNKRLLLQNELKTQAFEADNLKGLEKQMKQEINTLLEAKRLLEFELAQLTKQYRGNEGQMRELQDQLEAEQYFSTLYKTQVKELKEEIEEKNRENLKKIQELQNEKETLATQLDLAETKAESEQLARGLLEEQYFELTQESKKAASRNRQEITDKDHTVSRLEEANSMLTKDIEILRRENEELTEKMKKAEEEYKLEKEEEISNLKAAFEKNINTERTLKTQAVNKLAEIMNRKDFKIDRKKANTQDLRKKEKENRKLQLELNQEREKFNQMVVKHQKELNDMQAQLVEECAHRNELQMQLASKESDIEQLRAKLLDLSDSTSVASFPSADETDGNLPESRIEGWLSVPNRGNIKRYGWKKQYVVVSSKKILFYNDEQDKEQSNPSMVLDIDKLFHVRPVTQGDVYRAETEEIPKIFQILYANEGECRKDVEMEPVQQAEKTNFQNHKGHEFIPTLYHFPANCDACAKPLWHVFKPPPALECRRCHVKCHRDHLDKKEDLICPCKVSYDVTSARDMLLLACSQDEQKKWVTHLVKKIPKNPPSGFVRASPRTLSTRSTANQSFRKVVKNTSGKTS
Experimental: as §1
In a final reaction volume of 25 μl, ROCK-I (h) (5-10 mU) is incubated with 8 mM MOPS pH 7.0, 0.2 mM EDTA, 30 μM […] (SEQ ID NO:222), 10 mM MgAcetate and [gamma-33P-ATP] (specific activity approx. 500 cpm/pmol, concentration as required). The reaction is initiated by the addition of the MgATP mix. After incubation for 40 minutes at room temperature, the reaction is stopped by the addition of 5 μl of a 3% phosphoric acid solution. 10 μl of the reaction is then spotted onto a P30 filtermat and washed three times for 5 minutes in 75 mM phosphoric acid and once in methanol prior to drying and scintillation counting.

Chain of BRK(h) (Q13882 whole entry): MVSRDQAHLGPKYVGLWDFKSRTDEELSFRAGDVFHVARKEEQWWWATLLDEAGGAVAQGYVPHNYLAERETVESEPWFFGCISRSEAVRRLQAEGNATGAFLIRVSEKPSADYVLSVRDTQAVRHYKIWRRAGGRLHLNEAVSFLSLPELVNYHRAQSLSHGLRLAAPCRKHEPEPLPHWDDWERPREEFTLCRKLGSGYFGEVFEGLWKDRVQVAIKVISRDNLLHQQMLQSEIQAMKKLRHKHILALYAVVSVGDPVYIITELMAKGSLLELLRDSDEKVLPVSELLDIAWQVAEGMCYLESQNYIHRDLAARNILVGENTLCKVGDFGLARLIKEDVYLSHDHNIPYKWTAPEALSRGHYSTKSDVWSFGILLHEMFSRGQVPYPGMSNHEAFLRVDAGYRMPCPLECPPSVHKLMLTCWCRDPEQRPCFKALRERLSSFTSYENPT

Structure (SMILES): CN1CCCC1CCNC(=O)c1cn2c3c(c(N4CCC(c5cnccn5)C4)c(F)cc3c1=O)Oc1cc3ccccc3cc1-2 (stereo not drawn) [Compound A-1]
- remaining activity at 2.5 µM (BRK(h)): 131%
- remaining activity at 2.5 µM (Fyn(h)): 97%
- remaining activity at 2.5 µM (GSK3α(h)): 101%
- remaining activity at 2.5 µM (JNK3(h)): 97%
- remaining activity at 2.5 µM (Met(h)): 132%
- remaining activity at 2.5 µM (ROCK-I(h)): 91%

Structure (SMILES): CC(=O)N1CCN(c2ccc3c(=O)c(C(=O)NCCN4CCCC4)c4n(C)c5ccccc5n4c3n2)CC1 [Compound B-1]
- remaining activity at 2.5 µM (BRK(h)): 98%
- remaining activity at 2.5 µM (Fyn(h)): 85%
- remaining activity at 2.5 µM (GSK3α(h)): 89%
- remaining activity at 2.5 µM (JNK3(h)): 98%
- remaining activity at 2.5 µM (Met(h)): 115%
- remaining activity at 2.5 µM (ROCK-I(h)): 101%
